Experimental data reported in patent US10336809B2, “Peptides and combination of peptides for use in immunotherapy against various tumors” (immatics biotechnologies GmbH, priority 2015, dated 2019).

test system: CD8+ T cells; assay: In vitro T-cell priming assay with aAPCs loaded with peptide/MHC complexes and anti-CD28 antibody, pMHC multimer readout; format: cell-based, human; details: healthy HLA-A*02+ donors, positive donors
Source text: In order to obtain information regarding the immunogenicity of the TUMAPs of the present invention, the inventors performed investigations using an in vitro T-cell priming assay based on repeated stimulations of CD8+ T cells with artificial antigen presenting cells (aAPCs) loaded with peptide/MHC complexes and anti-CD28 antibody.
In order to perform in vitro stimulations by artificial antigen presenting cells loaded with peptide-MHC complex (pMHC) and anti-CD28 antibody, the inventors first isolated CD8+ T cells from fresh HLA-A*02 leukapheresis products via positive selection using CD8 microbeads (Miltenyi Biotec, Bergisch-Gladbach, Germany) of healthy donors obtained from the University clinics Mannheim, Germany, after informed consent. PBMCs and isolated CD8+ lymphocytes were incubated in T-cell medium (TCM) until use consisting of RPMI-Glutamax (Invitrogen, Karlsruhe, Germany) supplemented with 10% heat inactivated human AB serum (PAN-Biotech, Aidenbach, Germany), 100 U/ml Penicillin/100 μg/ml Streptomycin (Cambrex, Cologne, Germany), 1 mM sodium pyruvate (CC Pro, Oberdorla, Germany), 20 μg/ml Gentamycin (Cambrex). 2.5 ng/ml IL-7 (PromoCell, Heidelberg, Germany) and 10 U/ml IL-2 (Novartis Pharma, Nürnberg, Germany) were also added to the TCM at this step. Generation of pMHC/anti-CD28 coated beads, T-cell stimulations and readout was performed in a highly defined in vitro system using four different pMHC molecules per stimulation condition and 8 different pMHC molecules per readout condition.
The purified co-stimulatory mouse IgG2a anti human CD28 Ab 9.3 (Jung et al., 1987) was chemically biotinylated using Sulfo-N-hydroxysuccinimidobiotin as recommended by the manufacturer (Perbio, Bonn, Germany). Beads used were 5.6 μm diameter streptavidin coated polystyrene particles (Bangs Laboratories, Illinois, USA).
pMHC used for positive and negative control stimulations were A*0201/MLA-001 (peptide […] (SEQ ID NO. 289) from modified Melan-A/MART-1) and A*0201/DDX5-001 ([…] from DDX5, SEQ ID NO. 290), respectively.
800.000 beads/200 μl were coated in 96-well plates in the presence of 4×12.5 ng different biotin-pMHC, washed and 600 ng biotin anti-CD28 were added subsequently in a volume of 200 μl. Stimulations were initiated in 96-well plates by co-incubating […] CD8+ T cells with 2×10^5 washed coated beads in 200 μl TCM supplemented with 5 ng/ml IL-12 (PromoCell) for 3 days at 37° C. Half of the medium was then exchanged by fresh TCM supplemented with 80 U/ml IL-2 and incubating was continued for 4 days at 37° C. This stimulation cycle was performed for a total of three times. For the pMHC multimer readout using 8 different pMHC molecules per condition, a two-dimensional combinatorial coding approach was used as previously described (Andersen et al., 2012) with minor modifications encompassing coupling to 5 different fluorochromes. Finally, multimeric analyses were performed by staining the cells with Live/dead near IR dye (Invitrogen, Karlsruhe, Germany), CD8-FITC antibody clone SK1 (BD, Heidelberg, Germany) and fluorescent pMHC multimers. For analysis, a BD LSRII SORP cytometer equipped with appropriate lasers and filters was used. Peptide specific cells were calculated as percentage of total CD8+ cells. Evaluation of multimeric analysis was done using the FlowJo software (Tree Star, Oregon, USA). In vitro priming of specific multimer+ CD8+ lymphocytes was detected by comparing to negative control stimulations.
Exemplary flow cytometry results after TUMAP-specific multimer staining for 2 peptides of the invention are shown in FIG. 3 together with corresponding negative controls.

Substance | in vitro immunogenicity, donors
287 (KIQEILTQV; listed as Homo sapiens) [compound 287] | +++ (50%-69% = +++)
288 (SLYKGLLSV; listed as Homo sapiens) [compound 288] | ++++ (>=70% = ++++)

same assay, conditions: healthy HLA-A*02+ donors, positive wells

Substance | in vitro immunogenicity, wells
287 (KIQEILTQV; listed as Homo sapiens) [compound 287] | + (<20% = +)

same assay, conditions: in vitro immunogenicity, HLA-A*02 restricted peptides, CD8+ T cells of healthy donors, pMHC multimer readout

Substance | Wells positive [%]
4 (VLFGELPAL; listed as Homo sapiens) [compound 4] | + (<20% = +)
9 (SLITGQDLLSV; listed as Homo sapiens) [compound 9] | + (<20% = +)
14 (YTFSGDVQL; listed as Homo sapiens) [compound 14] | + (<20% = +)
17 (GLLPSAESIKL; listed as Homo sapiens) [compound 17] | + (<20% = +)
27 (GLLGKVTSV; listed as Homo sapiens) [compound 27] | + (<20% = +)
29 (KMISAIPTL; listed as Homo sapiens) [compound 29] | + (<20% = +)
34 (TLNTLDINL; listed as Homo sapiens) [compound 34] | ++++ (>=70% = ++++)
35 (VIIKGLEEI; listed as Homo sapiens) [compound 35] | + (<20% = +)
39 (YLEDGFAYV; listed as Homo sapiens) [compound 39] | ++++ (>=70% = ++++)
50 (ILLSVLHQL; listed as Homo sapiens) [compound 50] | + (<20% = +)
66 (AMFPDTIPRV; listed as Homo sapiens) [compound 66] | + (<20% = +)
77 (ALYGNVQQV; listed as Homo sapiens) [compound 77] | + (<20% = +)
89 (SLAETIFIV; listed as Homo sapiens) [compound 89] | + (<20% = +)
97 (KLFEKSTGL; listed as Homo sapiens) [compound 97] | + (<20% = +)
101 (SLLEVNEASSV; listed as Homo sapiens) [compound 101] | + (<20% = +)
102 (GLYPVTLVGV; listed as Homo sapiens) [compound 102] | + (<20% = +)
121 (ALYVQAPTV; listed as Homo sapiens) [compound 121] | + (<20% = +)
157 (ILQDGQFLV; listed as Homo sapiens) [compound 157] | + (<20% = +)
233 (SLFESLEYL; listed as Homo sapiens) [compound 233] | + (<20% = +)
236 (KMSELQTYV; listed as Homo sapiens) [compound 236] | + (<20% = +)
242 (KLQEEIPVL; listed as Homo sapiens) [compound 242] | + (<20% = +)
246 (ALAGIVTNV; listed as Homo sapiens) [compound 246] | + (<20% = +)
254 (ALGDKFLLRV; listed as Homo sapiens) [compound 254] | + (<20% = +)
255 (FLMKNSDLYGA; listed as Homo sapiens) [compound 255] | + (<20% = +)
257 (KLIDHQGLYL; listed as Homo sapiens) [compound 257] | + (<20% = +)
260 (ALNESLVEC; listed as Homo sapiens) [compound 260] | + (<20% = +)
263 (SIIEYLPTL; listed as Homo sapiens) [compound 263] | + (<20% = +)
264 (TLHDQVHLL; listed as Homo sapiens) [compound 264] | + (<20% = +)
267 (YLLDMPLWYL; listed as Homo sapiens) [compound 267] | + (<20% = +)
